Measured values from patent US20230242552A1, “Nitrogen-Containing Heterocyclic Compound, Preparation Method Therefor and Use Thereof” (280 Bio, Inc, priority 2022, published 2023).

How the values were obtained:
[1] = test system: NCI-H358 (KRAS G12C mutation); test: Proliferation inhibition measured by CTG, NCI-H358; type: cell-based, human; details: Homo sapiens, NCI-H358, 120 h, CellTiter Glo, 120 hours incubation
Method: (§1) NCI-H358 is a human non-small cell lung cancer cell line with KRAS G12C mutation; AGS is a gastric cancer cell line with KRAS G12D mutation; SW480 is a colon cancer cell lines with KRAS G12V mutation; A375 is a wild type malignant melanoma cell line. The proliferation inhibitory effect of the compounds on various mutations was evaluated by determining the proliferation inhibitory activity of the compounds on these cell lines.
(§2) The assay was conducted on either 384-well plates or 96-well plates. The procedures are as follows:
(§3) The cell suspensions were added to 384- or 96-well plates (384-well plate: 40 μL; 96-well plate: 100 μL) except for peripheral wells. The plates were incubated in a carbon dioxide incubator overnight. Prepared compounds (10 concentration gradients by serial 3-fold dilution) were added to the wells. The cell plates were incubated in a carbon dioxide incubator for 120 hours. CellTiter Glo reagent (384 well plate: 25 μL; 96 well plate: 100 μL) was added to the 384- or 96-well plates. The plates were shaken for 10 minutes away from light, and incubated for 10 minutes. The plates were read by EnVision system. Inhibition curves were plotted using XLFit and IC50 values were calculated. “IC50>10 μM” is denoted by “*”, “10 μM≥IC50>1 μM” is denoted by […] is denoted by “***”, “---” means no data.

[2] = test system: A375 (wild type malignant melanoma cell line); test: Proliferation inhibition measured by CTG, A375; type: cell-based; details: Homo sapiens, A-375, 120 h, CellTiter Glo, 120 hours incubation
Method: as §1, §2, §3

[3] = test system: SW480 (colon cancer cell lines with KRAS G12V mutation); test: Proliferation inhibition measured by CTG, SW480; type: cell-based; details: Homo sapiens, SW480, 120 h, CellTiter Glo, 120 hours incubation
Method: as §1, §2, §3

[4] = test system: AGS (gastric cancer cell line with KRAS G12D mutation); test: Proliferation inhibition measured by CTG, AGS; type: cell-based; details: 120 h, CellTiter Glo, 120 hours incubation
Method: as §1, §2, §3

IC50 [1] [nM] | IC50 [2] [nM] | IC50 [3] [nM] | IC50 [4] [nM] | Structure (SMILES)
≤ 1000 | ≤ 1000 | ≤ 1000 | ≤ 1000 | C[C@@H]1Cc2cncc(F)c2CN1c1nc(OC[C@H]2CCCN2C)nc2c1CCN(c1cccc3cccc(F)c13)C2 [Compound 31]
≤ 1000 | ≤ 1000 | ≤ 1000 | ≤ 1000 | C[C@@H]1Cc2cncc(F)c2CN1c1nc(OC[C@@H]2CCCN2C)nc2c1CCN(c1cccc3cccnc13)C2 [Compound 32]
≤ 1000 | ≤ 1000 | ≤ 1000 | ≤ 1000 | C[C@@H]1Cc2cncc(F)c2CN1c1nc(OC[C@@H]2CCCN2C)nc2cc(-c3cccc4cccnc34)ccc12 [Compound 33]
